Here are results for 26 compounds from patent publication US11034692B1 (Genentech, Inc., priority 2017, dated 2021).

As usually defined, the Ki is the equilibrium dissociation constant of an inhibitor or competing ligand from its target.

Chain of HPK1 (Homo sapiens, UniProt Q92918) (Q92918 whole entry, looked up): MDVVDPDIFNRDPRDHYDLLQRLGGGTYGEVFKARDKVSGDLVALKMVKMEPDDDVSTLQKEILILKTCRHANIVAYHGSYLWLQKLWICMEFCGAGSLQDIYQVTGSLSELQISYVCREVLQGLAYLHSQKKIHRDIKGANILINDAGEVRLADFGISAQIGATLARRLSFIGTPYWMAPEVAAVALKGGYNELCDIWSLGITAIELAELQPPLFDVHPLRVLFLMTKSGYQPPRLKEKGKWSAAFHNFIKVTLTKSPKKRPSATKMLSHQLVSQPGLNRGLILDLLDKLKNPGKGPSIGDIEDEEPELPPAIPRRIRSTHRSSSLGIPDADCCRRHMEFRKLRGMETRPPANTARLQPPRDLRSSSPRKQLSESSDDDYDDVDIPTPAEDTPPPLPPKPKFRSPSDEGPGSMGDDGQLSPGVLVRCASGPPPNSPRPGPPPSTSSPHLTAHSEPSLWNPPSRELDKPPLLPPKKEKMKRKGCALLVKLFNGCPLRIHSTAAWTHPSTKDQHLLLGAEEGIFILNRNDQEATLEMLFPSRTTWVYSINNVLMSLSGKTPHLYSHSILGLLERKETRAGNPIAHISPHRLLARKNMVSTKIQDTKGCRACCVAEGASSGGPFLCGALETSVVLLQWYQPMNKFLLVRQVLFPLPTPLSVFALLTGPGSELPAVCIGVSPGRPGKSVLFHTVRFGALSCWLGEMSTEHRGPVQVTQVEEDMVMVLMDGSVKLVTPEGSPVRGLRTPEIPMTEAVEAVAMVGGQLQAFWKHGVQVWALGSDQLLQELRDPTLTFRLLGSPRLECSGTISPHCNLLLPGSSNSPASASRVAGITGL
Chain of HPK1-FL (HPK full length, T165E S171E) (Q92918 whole entry T165E/S171E): as the sequence (Q92918 whole entry, looked up) above, with T165E, S171E counted along it

The first experiment addresses HPK1-FL (HPK full length, T165E S171E) (Homo sapiens (Human), UniProt Q92918, S171E/T165E). Put plainly: HPK1-FL HTRF Enzymatic Assay ("HTRF"). It is filed as biochemical. Particulars: ATP 1 mM, Table B1-2, read-out: HPK1 Ki, H = HTRF. The procedure: HPK1-FL HTRF Enzymatic Assay (“HTRF”)
HPK-FL enzyme phosphorylates Biotin-SLP-76 substrate in the presence of ATP at 1 mM and varying concentrations of test compound. Product is detected by FRET using Eu-anti-pSLP76 Ab and SA-XL665. See www.cisbio.com/HTRF for additional HTRF technology information.
Instrumentation: • Echo555 compound dispenser • Agilent Bravo • Perkin Elmer Envision
Materials: • Assay plate: White ProxiPlate 384 F (PerkinElmer cat #6008289) • Kinase: HPK full length double mutant • Substrate: Biotin-SLP76 • ATP: 100 mM ATP • BSG: 2% BSG • DMSO: DMSO (Sigma cat #34869-100ML) • Reaction Buffer: H2O/50 mM HEPES, pH 7.5/10 mM MgCl2/2 mM TCEP/0.01% Brij-35/0.01% BSG • Detection mix: Eu-anti-pSLP76/SA-XL665 (Cisbio, #610SAXAC)
Assay Procedure Ki Determination:
To a 384 well Proxiplate with 80 nL compound or DMSO spotted on was added 4 μl/well kinase mix. The mixture was preincubated for 30 minutes and then 4 μl/well substrate mix was added. The solution was incubated for 60 min and then 4 μl/well detection mix was added. The solution was incubated for another 60 min. The plates were then loaded onto a Perkin Elmer Envision and the TR-FRET signal was measured at 615 and 665 nm. A ratio of […] was used to calculate the % activity at each concentration of compound.
A general note: In TR-FRET formats the signal depends on donor and acceptor labels being close together.
On to `CC(Oc1ccccn1)c1cc2cc(Nc3cc4n(n3)CC(=O)N(C(C)C)CC4)ncc2c(N)n1` (racemic) [Compound 419, (+/−)-2-((8-amino-6-(1-(pyridin-2-yloxy)ethyl)-2,7-naphthyridin-3-yl)amino)-6-isopropyl-5,6-dihydro-4H-pyrazolo[1,5-d][1,4]diazepin-7(8H)-one], for which the Ki turned out to be 511 nM.

Consider `CC(C)N1CCc2cc(Nc3cc4cc(C(C)n5ccccc5=O)nc(N)c4cn3)nn2CC1=O` (racemic) [Compound 420, (+/−)-2-((8-amino-6-(1-(2-oxopyridin-1(2H)-yl)ethyl)-2,7-naphthyridin-3-yl)amino)-6-isopropyl-5,6-dihydro-4H-pyrazolo[1,5-d][1,4]diazepin-7(8H)-one], for which the Ki was 1640 nM.

Regarding `Cc1cc(-c2ncco2)cc(F)c1-c1cc2cc(NC(=O)[C@H]3[C@H](C)[C@@H]3c3cnn(C)c3)ncc2c(N)n1` (single isomer, unassigned) [Compound 349, N-(8-amino-6-(2-fluoro-6-methyl-4-(oxazol-2-yl)phenyl)-2,7-naphthyridin-3-yl)-2-methyl-3-(1-methyl-1H-pyrazol-4-yl)cyclopropane-1-carboxamide], the Ki is 6.2 nM.

With `Cc1cc(-c2ncco2)cc(F)c1-c1cc2cc(NC(=O)[C@H]3[C@@H](C)[C@@H]3c3cnn(C)c3)ncc2c(N)n1` (single isomer, unassigned) [Compound 350], the Ki is 39.7 nM.

As to `Cc1cc(C(N)=O)cc(F)c1-c1cc2cc(NC(=O)[C@H]3C[C@@H]3c3cnn(C)c3)ncc2c(N)n1` (single isomer, unassigned) [Compound 351], the inhibition constant (Ki) came out at 0.33 nM.

On to `Cc1cc(C(N)=O)cc(F)c1-c1cc2cc(NC(=O)[C@@H]3C[C@H]3c3cnn(C)c3)ncc2c(N)n1` (single isomer, unassigned) [Compound 352], for which the Ki was 5 nM.

As to `Cc1c(N)cncc1-c1cc2cc(Nc3cc4n(n3)CC(=O)N(C)CC43CC3)ncc2c(N)n1` [Compound 414, 2′-((8-amino-6-(5-amino-4-methylpyridin-3-yl)-2,7-naphthyridin-3-yl)amino)-6′-methyl-5′,6′-dihydrospiro[cyclopropane-1,4′-pyrazolo[1,5-d][1,4]diazepin]-7′(8′H)-one], the Ki was found to be 0.013 nM.

`Cc1c(N)cncc1-c1cc2cc(Nc3cc4n(n3)CC(=O)N(C)CC4)ncc2c(N)n1` [Compound 415, 2-((8-amino-6-(5-amino-4-methylpyridin-3-yl)-2,7-naphthyridin-3-yl)amino)-6-methyl-5,6-dihydro-4H-pyrazolo[1,5-d][1,4]diazepin-7(8H)-one]: the Ki is 0.21 nM.

In another experiment the target is HPK1 (Homo sapiens, UniProt Q92918). Kind of experiment: HPK1 Lantha Binding Assay ("Lanth"). The settings on record: Table B1-1, read-out: HPK1 Ki (μM) (Lanth). The method, boiled down:
(§1)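 Compounds in an 11-point 5-fold series were preincubated 1 h at 23 C with 2 nM kinase plus 2 nM Eu-anti-GST antibody. Then 15 nM Tracer222 was added for another hour, and time-resolved FRET was read at 665/615 nm. Ki values come from a Morrison tight-binding model that uses the tracer Kd.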
For `Cc1ccncc1-c1cc2cc(NC(=O)[C@@H]3C[C@H]3F)ncc2c(N)n1` (single isomer, unassigned) [Compound 107, (trans)-N-(8-amino-6-(4-methylpyridin-3-yl)-2,7-naphthyridin-3-yl)-2-fluorocyclopropane-1-carboxamide], the Ki worked out at 0.000654 µM.

As for `Cn1cc([C@H]2C[C@@H]2C(=O)Nc2cc3c(Cl)c(-c4cnccc4CCO)nc(N)c3cn2)cn1` (single isomer, unassigned) [Compound 332], the Ki was found to be 0.00562 µM.

Regarding `Nc1nc(-c2ccc[nH]c2=O)cc2cc(NC(=O)C3CC3)ncc12` [Compound 42, N-(8-amino-6-(2-oxo-1,2-dihydropyridin-3-yl)-2,7-naphthyridin-3-yl) cyclopropanecarboxamide], the Ki was 5.8 µM.

For `Cc1ccncc1-c1cc2cc(NC(=O)NC(C)CO)ncc2c(N)n1` (stereo not drawn) [Compound 117, l-(8-amino-6-(4-methylpyridin-3-yl)-2,7-naphthyridin-3-yl)-3-(1-hydroxypropan-2-yl)urea], the Ki is 0.00847 µM.

As to `Cc1ccncc1-c1cc2cc(NC(=O)C3CC34CN(c3ncccc3C#N)C4)ncc2c(N)n1` (stereo not drawn) [Compound 150, N-(8-amino-6-(4-methylpyridin-3-yl)-2,7-naphthyridin-3-yl)-5-(3-cyanopyridin-2-yl)-5-azaspiro[2.3]hexane-1-carboxamide], the Ki stood at 0.00077 µM.

Consider `CNC(=O)Cn1cc(Nc2cc3cc(-c4cnccc4C)nc(N)c3cn2)cn1` [Compound 184, 2-[4-[[8-amino-6-(4-methyl-3-pyridyl)-2,7-naphthyridin-3-yl]amino]pyrazol-1-yl]-N-methyl-acetamide], for which the Ki amounted to 0.0025 µM.

For `Cc1ccncc1-c1cc2cc(NC(=O)[C@H]3[C@@H]4CCC(C#N)[C@@H]43)ncc2c(N)n1` (stereo partly drawn) [Compound 230, (1R,5R,6S)—N-(8-amino-6-(4-methylpyridin-3-yl)-2,7-naphthyridin-3-yl)-2-cyanobicyclo[3.1.0]hexane-6-carboxamide], the Ki was 0.000295 µM.

In the case of `Cc1ccncc1-c1cc2cc(Nc3cc(C)n(CCO)n3)ncc2c(N)n1` [Compound 262, 2-(3-[[8-amino-6-(4-methylpyridin-3-yl)-2,7-naphthyridin-3-yl]amino]-5-methyl-1H-pyrazol-1-yl)ethan-1-ol], the Ki worked out at 0.000439 µM.

Staying with this experiment, now noted: Table B1-2, read-out: HPK1 Ki, L = Lanth.
Take `Cc1ccnc(Cc2ccccc2)c1-c1cc2cc(NC(=O)[C@H]3C[C@@H]3c3cnn(C)c3)ncc2c(N)n1` (racemic) [Compound 427, (+/−)-trans-N-(8-amino-6-(2-benzyl-4-methylpyridin-3-yl)-2,7-naphthyridin-3-yl)-2-(1-methyl-1H-pyrazol-4-yl)cyclopropane-1-carboxamide]: the Ki worked out at 0.00078 µM.

For the compound `Cc1ccc2c(c1-c1cc3cc(NC(=O)[C@H]4C[C@@H]4CC#N)ncc3c(N)n1)CC[C@@]2(C)O` (single isomer, unassigned) [Compound 353], the Ki amounted to 0.029 µM.

For the compound `Cc1cccc(Cl)c1-c1cc2cc(NC(=O)[C@H]3C[C@@H]3CC#N)ncc2c(N)n1` (single isomer, unassigned) [Compound 362], the inhibition constant (Ki) worked out at 0.00022 µM.

For the compound `Cc1cccc(CC#N)c1-c1cc2cc(NC(=O)[C@@H]3C[C@H]3c3cnn(C)c3)ncc2c(N)n1` (single isomer, unassigned) [Compound 381], the Ki turned out to be 0.0081 µM.

On to `Cc1ccnc(Cc2ccccc2)c1-c1cc2cc(NC(=O)[C@@H]3C[C@H]3c3cnn(C)c3)ncc2c(N)n1` (single isomer, unassigned) [Compound 397], for which the Ki was found to be 0.00025 µM.

Regarding `Cc1cc(-n2cccn2)ncc1-c1cc2cc(NC(=O)[C@H]3C[C@@H]3c3cnn(C)c3)ncc2c(N)n1` (single isomer, unassigned) [Compound 398], the Ki is 0.03 µM.

Turning to `Cc1cc(N2CCC2=O)ncc1-c1cc2cc(NC(=O)[C@H]3C[C@@H]3c3cnn(C)c3)ncc2c(N)n1` (single isomer, unassigned) [Compound 400], the Ki came to 0.0012 µM.

Take `COC(=O)c1cc(C)c(-c2cc3cc(NC(=O)[C@H]4C[C@@H]4c4cnn(C)c4)ncc3c(N)n2)cn1` (single isomer, unassigned) [Compound 402]: the Ki turned out to be 0.00026 µM.

As to `Cc1cc(-c2ccn(C)n2)ncc1-c1cc2cc(NC(=O)[C@H]3C[C@@H]3c3cnn(C)c3)ncc2c(N)n1` (single isomer, unassigned) [Compound 404], the Ki turned out to be 0.0019 µM.

In the case of `Cc1ccncc1-c1cc2cc(NC(=O)C3CC34CC4)ncc2c(N)n1` (stereo not drawn) [Compound 413, N-(8-amino-6-(4-methylpyridin-3-yl)-2,7-naphthyridin-3-yl)spiro[2.2]pentane-1-carboxamide], the inhibition constant (Ki) is 0.015 µM.

The next experiment has as its target HPK1. Put plainly: HPK1 Lantha Binding Assay ("Lanth"). The settings on record: Table B1-1, read-out: HPK1 Ki (μM) (Lanth). The method, boiled down:
as §1
As to `Nc1nc(-c2ccc[nH]c2=O)cc2cc(NC(=O)C3CC3)ncc12` [Compound 42, N-(8-amino-6-(2-oxo-1,2-dihydropyridin-3-yl)-2,7-naphthyridin-3-yl) cyclopropanecarboxamide], the Ki worked out at 0.0405 µM.
